Results as given in patent US20240043435A1, “TYK-2 INHIBITOR” (BEIGENE, LTD., priority 2020, published 2024).

Assays:
[1] = molecular target: T1, TYK2-JH2 (aa 575-869, in-house) protein (Homo sapiens, UniProt P29597); experiment: TYK2-JH2 biochemical assay (HTRF probe displacement); format: binding; details: Biochemical assay; read-out: TYK2-JH2 IC50
T1 construct: TYK2-JH2 (aa 575-869, in-house) protein; made in house
Outline: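 Recombinant TYK2-JH2 (0.2 nM) was pre-incubated 0.5 h at room temperature with compounds (10 doses, 5-fold dilution; 500× DMSO stocks from 500 uM) in 20 mM HEPES pH 7.5, 10 mM MgCl2, 0.005% BSA, 2 mM DTT, 0.015% Brij-35. Probe displacement was read by HTRF (ex337, em620/665 nm); IC50 from four-parameter logistic fit.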

[2] = system: JAK2, TYK2/p-STAT4 (Tyr693) activated by IL-12 in NK-92 cell line; experiment: IL-12-JAK2, TYK2/p-STAT4 (Tyr693) inhibition IC50 cellular assay; format: cell-based; details: NK92, Cellular assay; read-out: pSTAT4/IL-12 IC50
Outline: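 NK-92 cells were starved overnight without IL-2 and preincubated 1 h at 37° C with compound (8 doses, 10000–0.61 nM, 4-fold, 0.2% DMSO). They were then stimulated with IL-12 (40 ng/ml final) for 30 min. Lysate p-STAT4 (Tyr693) was read by AlphaLISA SureFire; IC50 from four-parameter logistic fit.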

pSTAT5/GM-CSF = pSTAT5/GM-CSF cellular assay (JAK2 selectivity); format: cell-based; details: for Selectivity fold (TYK2/JAK2): pSTAT5/GM-CSF IC50 over pSTAT4/IL-12 IC50

T1 sequence (P29597 575-869): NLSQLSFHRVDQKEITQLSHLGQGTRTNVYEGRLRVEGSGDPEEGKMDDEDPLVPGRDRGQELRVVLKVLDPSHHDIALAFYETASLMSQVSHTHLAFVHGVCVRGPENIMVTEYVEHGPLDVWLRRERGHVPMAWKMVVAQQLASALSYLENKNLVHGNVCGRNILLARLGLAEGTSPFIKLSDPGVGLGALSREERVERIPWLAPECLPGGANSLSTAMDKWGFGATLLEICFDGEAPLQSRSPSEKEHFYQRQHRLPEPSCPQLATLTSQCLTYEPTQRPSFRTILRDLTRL

Structure (SMILES) | IC50 [1] | IC50 [2] | IC50 (pSTAT5/GM-CSF) | Selectivity fold (TYK2/JAK2) (pSTAT5/GM-CSF)
CCn1ccc(-c2cnc(NC(C)=O)cc2Nc2cc(COC)cc(S(C)(=O)=O)c2)n1 [Example M12, N-(5-(1-ethyl-1H-pyrazol-3-yl)-4-((3-(methoxymethyl)-5-(methylsulfonyl)phenyl)amino)pyridin-2-yl)acetamide] | 0.03 nM | 9.12 nM | > 10000 nM | >1096 fold
CCn1ccc(-c2cnc(NC(C)=O)cc2Nc2cc(OCCOC)cc(S(C)(=O)=O)c2)n1 [Example M14, N-(5-(1-ethyl-1H-pyrazol-3-yl)-4-((3-(2-methoxyethoxy)-5-(methylsulfonyl)phenyl)amino)pyridin-2-yl)acetamide] | 0.03 nM | 9.46 nM | > 10000 nM | >1057 fold
CCn1ccc(-c2cnc(NC(C)=O)cc2Nc2cc(OCCO)cc(S(C)(=O)=O)c2)n1 [Example M15, N-(5-(1-ethyl-1H-pyrazol-3-yl)-4-((3-(2-hydroxyethoxy)-5-(methylsulfonyl)phenyl)amino)pyridin-2-yl)acetamide] | 0.048 nM | 10.2 nM | > 10000 nM | >977 fold
CCn1ccc(-c2cnc(NC(C)=O)cc2Nc2cc(OC3CCCC3)cc(S(C)(=O)=O)n2)n1 [Example M17, N-(4-((4-(cyclopentyloxy)-6-(methylsulfonyl)pyridin-2-yl)amino)-5-(1-ethyl-1H-pyrazol-3-yl)pyridin-2-yl)acetamide] | 0.041 nM | 1.09 nM | > 10000 nM | >9174 fold
CCOc1cc(Nc2cc(NC(C)=O)ncc2-c2ccn(CC)n2)nc(S(C)(=O)=O)c1 [Example M18, N-(4-((4-ethoxy-6-(methylsulfonyl)pyridin-2-yl)amino)-5-(1-ethyl-1H-pyrazol-3-y)pyridin-2-yl)acetamide] | 0.026 nM | 0.989 nM | > 10000 nM | >10111 fold
CCn1ccc(-c2cnc(NC(C)=O)cc2Nc2cc(OCCO)cc(S(C)(=O)=O)n2)n1 [Example M19, N-(5-(1-ethyl-1H-pyrazol-3-yl)-4-((4-(2-hydroxyethoxy)-6-(methylsulfonyl)pyridin-2-yl)amino)pyridin-2-yl)acetamide] | 0.032 nM | 2.55 nM | > 10000 nM | >3921 fold
CCn1ccc(-c2cnc(NC(C)=O)cc2Nc2cc(OCCOC)cc(S(C)(=O)=O)n2)n1 [Example M20, N-(5-(1-ethyl-1H-pyrazol-3-yl)-4-((4-(2-methoxyethoxy)-6-(methylsulfonyl)pyridin-2-yl)amino)pyridin-2-yl)acetamide] | 0.062 nM | 1.01 nM | > 10000 nM | >9900 fold
CCn1ccc(-c2cnc(NC(C)=O)cc2Nc2nc(S(C)(=O)=O)ccc2OC(C)C)n1 [Example M21, N-(5-(1-ethyl-1H-pyrazol-3-yl)-4-((3-isopropoxy-6-(methylsulfonyl)pyridin-2-yl)amino)pyridin-2-yl)acetamide] | 0.035 nM | 1.69 nM | > 10000 nM | >5917 fold
CC(=O)Nc1cc(Nc2cccc(S(C)(=O)=O)n2)c(-c2ccn(C(C)C)n2)cn1 [Example M22, N-(5-(1-isopropyl-1H-pyrazol-3-yl)-4-((6-(methylsulfonyl)pyridin-2-yl)amino)pyridin-2-yl)acetamide] | 0.027 nM | 0.316 nM | 532 nM | 1683 fold
CC(=O)Nc1cc(Nc2cc(OC(C)C)cc(S(C)(=O)=O)n2)c(-c2ccn(C(C)C)n2)cn1 [Example M23, N-(4-((4-isopropoxy-6-(methylsulfonyl)pyridin-2-yl)amino)-5-(1-isopropyl-1H-pyrazol-3-yl)pyridin-2-yl)acetamide] | 0.031 nM | 1.08 nM | 3750 nM | 3471 fold
COCCOc1cc(Nc2cc(NC(C)=O)ncc2-c2ccn(C(C)C)n2)nc(S(C)(=O)=O)c1 [Example M24, N-(5-(1-isopropyl-1H-pyrazol-3-yl)-4-((4-(2-methoxyethoxy)-6-(methylsulfonyl)pyridin-2-yl)amino)pyridin-2-yl)acetamide] | 0.032 nM | 0.487 nM | 2180 nM | 4466 fold
CC(=O)Nc1cc(Nc2cc(C(F)(F)F)cc(S(C)(=O)=O)c2)c(-c2ccn(C(C)C)n2)cn1 [Example M25, N-(5-(1-isopropyl-1H-pyrazol-3-yl)-4-((3-(methylsulfonyl)-5-(trifluoromethyl)phenyl)amino)pyridin-2-yl)acetamide] | 0.096 nM | 15.2 nM | > 10000 nM | >659 fold
CC(=O)Nc1cc(Nc2cc(OC(C)C)cc(S(C)(=O)=O)c2)c(-c2ccn(C(C)C)n2)cn1 [Example M26, N-(4-((3-isopropoxy-5-(methylsulfonyl)phenyl)amino)-5-(1-isopropyl-1H-pyrazol-3-yl)pyridin-2-yl)acetamide] | 0.046 nM | 4.33 nM | > 10000 nM | >2309 fold
COc1cc(Nc2cc(NC(C)=O)ncc2-c2ccn(C(C)C)n2)cc(S(C)(=O)=O)c1 [Example M27, N-(5-(1-isopropyl-1H-pyrazol-3-yl)-4-((3-methoxy-5-(methylsulfonyl)phenyl)amino)pyridin-2-yl)acetamide] | 0.035 nM | 3.85 nM | > 10000 nM | >2597 fold
CC(=O)Nc1cc(Nc2cc(OCCO)cc(S(C)(=O)=O)n2)c(-c2ccn(C(C)C)n2)cn1 [Example M28, N-(4-((4-(2-hydroxyethoxy)-6-(methylsulfonyl)pyridin-2-yl)amino)-5-(1-isopropyl-1H-pyrazol-3-yl)pyridin-2-yl)acetamide] | 0.032 nM | 16.6 nM | > 10000 nM | >601 fold
CC(=O)Nc1cc(Nc2cccc(S(C)(=O)=O)c2)c(-c2ccn(C3CCOC3)n2)cn1 (centres unmarked) [Example M30, N-(4-((3-(methylsulfonyl)phenyl)amino)-5-(1-(tetrahydrofuran-3-yl)-1H-pyrazol-3-yl)pyridin-2-yl)acetamide] | 0.049 nM | 11.2 nM | > 10000 nM | >892 fold
CC(=O)Nc1cc(Nc2cc(C)cc(S(C)(=O)=O)n2)c(-c2ccn(C3CCOC3)n2)cn1 (centres unmarked) [Example M31, N-(4-((4-methyl-6-(methylsulfonyl)pyridin-2-yl)amino)-5-(1-(tetrahydrofuran-3-yl)-1H-pyrazol-3-yl)pyridin-2-yl)acetamide] | 0.031 nM | 0.828 nM | 1420 nM | 1714 fold
CC(=O)Nc1cc(Nc2cc(OC(C)C)cc(S(C)(=O)=O)n2)c(-c2ccn([C@H]3CCOC3)n2)cn1 [Example M33, (S)-N-(4-((4-isopropoxy-6-(methylsulfonyl)pyridin-2-yl)amino)-5-(1-(tetrahydrofuran-3-yl)-1H-pyrazol-3-yl)pyridin-2-yl)acetamide] | 0.027 nM | 0.648 nM | > 10000 nM | >15432 fold
CC(=O)Nc1cc(Nc2cc(OC(C)C)cc(S(C)(=O)=O)n2)c(-c2ccn([C@@H]3CCOC3)n2)cn1 [Example M34, (R)-N-(4-((4-isopropoxy-6-(methylsulfonyl)pyridin-2-yl)amino)-5-(1-(tetrahydrofuran-3-yl)-1H-pyrazol-3-yl)pyridin-2-yl)acetamide] | 0.024 nM | 0.402 nM | > 10000 nM | >24875 fold
COc1cc(Nc2cc(NC(C)=O)ncc2-c2ccn([C@@H]3CCOC3)n2)nc(S(C)(=O)=O)c1 [Example M35, (R)-N-(4-((4-methoxy-6-(methylsulfonyl)pyridin-2-yl)amino)-5-(1-(tetrahydrofuran-3-yl)-1H-pyrazol-3-yl)pyridin-2-yl)acetamide] | 0.036 nM | 50.2 nM | > 10000 nM | >199 fold
CC(=O)Nc1cc(Nc2cccc(S(C)(=O)=O)n2)c(-c2cc(C)n(C)n2)cn1 [Example N1, N-(5-(1,5-dimethyl-1H-pyrazol-3-yl)-4-((6-(methylsulfonyl)pyridin-2-yl)amino)pyridin-2-yl)acetamide] | 0.077 nM | 0.247 nM | 2130 nM | 8635 fold
CC(=O)Nc1cc(Nc2cc(OC(C)C)cc(S(C)(=O)=O)n2)c(-c2cc(C)n(C)n2)cn1 [Example N2, N-(5-(1,5-dimethyl-1H-pyrazol-3-yl)-4-((4-isopropoxy-6-(methylsulfonyl)pyridin-2-yl)amino)pyridin-2-yl)acetamide] | 0.021 nM | 0.641 nM | > 10000 nM | >15600 fold
CC(=O)Nc1cc(Nc2cc(OCCO)cc(S(C)(=O)=O)c2)c(-c2cc(C)n(C)n2)cn1 [Example N3, N-(5-(1,5-dimethyl-1H-pyrazol-3-yl)-4-((3-(2-hydroxyethoxy)-5-(methylsulfonyl)phenyl)amino)pyridin-2-yl)acetamide] | 0.033 nM | 12.6 nM | > 10000 nM | >791 fold
